According to the METLIN SMRT retention time set (Domingo-Almenara et al. 2019):

Assay: gradient 5% acetonitrile 3 min, to 50% in 2 min, to 85% in 15 min, held 3 min, 100 µL/min
Details: column: Zorbax Extend-C18 2.1 x 50 mm; eluents: water / acetonitrile, 0.1% formic acid
Method in brief: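 Retention time was recorded from adduct peaks, which were picked computationally and each inspected manually. Pure standards ran in mixtures of ~100 molecules on HPLC coupled to a quadrupole time-of-flight mass spectrometer, in positive and negative ionization mode, through a Zorbax Extend-C18 column (2.1 × 50 mm, 1.8 μm) at 100 μL/min. Eluents were water and acetonitrile, each with 0.1% formic acid.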

Row | Structure (SMILES) | RP-LC retention time
1 | COc1ccc(OC)c(S(=O)(=O)N2CCCC(C(=O)NC(C)C)C2)c1 (configuration not stated) | 714 s
2 | CCCOC(=O)C1=C(C)NC2=C(C(=O)C(C(=O)OC)C(C)C2)C1c1ccccc1OC (configuration not stated) | 906 s
3 | CSc1ncccc1-c1nnc(C)o1 | 712 s
4 | CCn1c(CNC(=O)C2CCC2)nc2c1CN(S(=O)(=O)c1ccc(Cl)cc1)CC2 | 692 s
5 | CC1(C)NC(=O)N(CCCCCCN2C(=O)NC(C)(C)C2=O)C1=O | 623 s
6 | Cc1ccccc1S(=O)(=O)N1CCC(CCC(=O)NC2CC2)CC1 | 791 s
7 | COc1ccc(-n2ncc3c(=O)n(Cc4nc(-c5ccc(OC)c(OC)c5)no4)cnc32)cc1 | 910 s
8 | Cc1cc(NC(=O)CSc2nnc(Cc3cccn3C)n2CCc2ccccc2)no1 | 762 s
9 | COc1ccc(-c2noc(-c3nnn4c3COC(c3ccc(Cl)cc3)C4)n2)c(OC)c1 (configuration not stated) | 1140 s
10 | Cc1ccc2c(c1)C(=O)NC1(CCN(C(=O)NCc3ccccc3)CC1)N2C | 731 s
11 | CCNc1nc(-c2nnc(-c3cccc(C)c3)o2)nc2ccccc12 | 932 s
12 | COc1ccc2c(c1)C1CC(C)(NC(=O)C1S(=O)(=O)c1ccc(C)cc1)O2 (configuration not stated) | 893 s
13 | COc1ccc(NC(=O)Nc2cccc(-c3ccc(N4CCOCC4)nn3)c2)cc1F | 675 s
14 | O=C(NCc1cccc(Cl)c1)c1cc(C2CC2)n2nccc2n1 | 974 s
15 | Cc1ccc(-c2nc(-c3ccc4c(c3)ncn4CCN3CCCCC3)no2)s1 | 646 s
16 | Cn1ccc(CN2CCc3ccccc32)cc1=O | 788 s
17 | CC(C)N1CCC(F)(c2nc(-c3ccccc3)no2)CC1 | 657 s
18 | Cc1ccc(CNC(=O)C2CCN(S(=O)(=O)c3ccc4c(c3)NC(=O)C(C)O4)CC2)cc1 (configuration not stated) | 824 s
19 | O=C(CSc1nc(N2CCCCC2)nc2ccccc12)Nc1ccc2c(c1)OCCO2 | 690 s
20 | CCC1Oc2ccc(S(=O)(=O)N3CCC(C(=O)NCc4ccccc4OC)CC3)cc2NC1=O (configuration not stated) | 839 s
21 | Cc1ccc(S(=O)(=O)c2cnc(N3CCN(c4ccccc4)CC3)nc2N)cc1C | 1110 s
22 | O=C(c1ccc(Cl)cc1)N1CCCN(c2nnc3ccccn23)CC1 | 650 s
23 | CC1(C(=O)NCc2ccc(F)cc2)CCCN(C(=O)NCCc2ccccc2)C1 (configuration not stated) | 857 s

Row | Structure (SMILES) | RP-LC retention time
24 | CC(C)S(=O)(=O)c1ccc(CC(=O)N(Cc2cccs2)Cc2cccn2C)cc1 | 877 s
25 | Fc1cc(F)c2c(c1)C1C=CCC1C(c1cccnc1)N2 (configuration not stated) | 706 s
26 | COc1ccc(-c2csc(Nc3ccc(Br)cn3)n2)cc1 | 1170 s
27 | Cc1noc(C)c1CCNC(=O)CCCn1c(=O)c2cccn2c2ccc(Br)cc21 | 803 s
28 | NS(=O)(=O)c1ccc(NC(=O)Nc2ccc(F)cc2)cc1 | 772 s
29 | O=C(Nc1nnc(SCc2nnc(-c3ccccc3)o2)s1)C1CCCCC1 | 934 s
30 | CCn1cc(-c2nc(C)c(C(=O)NCc3cccs3)s2)c2cccnc21 | 926 s
31 | COC(=O)C1=C(CN2CCSCC2)NC(=O)NC1c1ccccc1Cl (configuration not stated) | 621 s
32 | CC(C)N1C(=O)C(C)(C(=O)Nc2ccc(F)cc2F)Oc2cccnc21 (configuration not stated) | 989 s
33 | CCC1CCCCN1CCNC(=O)CCc1cc2cc(OC)ccc2[nH]c1=O (configuration not stated) | 593 s
34 | CC(C)NC(=O)N1CC(c2nc(-c3ccc(F)cc3)no2)C2(CCOCC2)C1 (configuration not stated) | 815 s
35 | O=C(c1ccc(OCC2CCCN(C(=O)c3cccs3)C2)cc1)N1CCOCC1 (configuration not stated) | 620 s
36 | Cc1cc(SCC(=O)Nc2ccc(Cl)cc2C(F)(F)F)nc(-c2cccnc2)n1 | 785 s
37 | CCOc1ccccc1NC(=O)C1(C)Oc2cccnc2N(C)C1=O (configuration not stated) | 929 s
38 | Cc1ccc(C)c(NC(=O)Cn2c(N)nc(C)c(C)c2=O)c1 | 631 s
39 | CCN(Cc1ccccc1)C(=O)CN1C(=O)CCc2cc(Br)ccc21 | 1000 s
40 | COc1ccc(CCS(=O)(=O)NCC2CCN(C(=O)Oc3ccccc3)CC2)cc1 | 888 s
41 | CCc1cc(C(=O)Nc2cccc(F)c2)nc2ccnn12 | 998 s
42 | CC(C)N1CCc2c(sc(NC(=O)c3ccc([N+](=O)[O-])s3)c2C(N)=O)C1 | 573 s
43 | Cc1cccc(N(C)C(=O)Cn2cnc3nc4c(cc3c2=O)CCCC4)c1 | 705 s
44 | CCCN(CC1CCOC1)C(=O)Nc1ccccc1OC (configuration not stated) | 821 s
45 | Cc1sc(NC(=O)c2ccccc2)c(C(=O)NCCN(C)C)c1C | 677 s
46 | COc1ccccc1-n1c(SCC(=O)Nc2ncn[nH]2)nc2ccccc2c1=O | 642 s

Row | Structure (SMILES) | RP-LC retention time
47 | CNC(=O)c1cn(-c2ccc(-c3nc(C(C)(C)C)no3)cn2)cn1 | 806 s
48 | CN(C)C(=O)c1ccc2c(c1)nc(CN1CCN(C(=O)NC3CCCCC3)CC1)n2C | 565 s
49 | COc1ccc(C)cc1NC(=O)CN1C(=O)C2CCCCN2c2ccc(S(=O)(=O)N(C)C)cc21 (configuration not stated) | 1000 s
50 | Cc1ccc(Cl)cc1NC(=O)N1CCC(CC(=O)N2CCCCC2)CC1 | 801 s
51 | O=C(Cn1c(=O)oc2ccccc21)Nc1nc(-c2ccc(Cl)cc2)cs1 | 1020 s
52 | O=C(c1ccc([N+](=O)[O-])o1)N1CCN(Cc2nnnn2-c2ccc(F)cc2)CC1 | 755 s
53 | O=C(c1cnccn1)N1C[C@@H](COCC2CC2)[C@H](c2ccncc2)C1 | 563 s
54 | CC(C)(C)c1noc(-c2ccc(=O)n(Cc3cccc(F)c3)n2)n1 | 1050 s
55 | COc1cccc(-n2ccc(=O)c(-c3nc(-c4ccccc4F)no3)n2)c1 | 869 s
56 | O=C(NC1CCCCC1)C1CCCN(S(=O)(=O)c2c[nH]c(C(=O)N3CCCCCC3)c2)C1 (configuration not stated) | 866 s
57 | COc1cccc(-n2nnc(C(=O)O)c2-c2ccncc2)c1 | 628 s
58 | CCN1CCN(c2ncc3c(n2)CCN(Cc2ccc(OC)c(OC)c2OC)C3)CC1 | 547 s
59 | COc1cc(OC)c(NC(=O)N(C)CCc2noc(-c3ccc(F)cc3)n2)cc1Cl | 943 s
60 | COC(=O)c1cc(C2CC2)nc2c1c(=O)n(Cc1ccc(Cl)cc1)c(=O)n2C | 1180 s
61 | Cc1ccc(CNC(=O)C2c3ccccc3CC(=O)N2C)o1 (configuration not stated) | 693 s
62 | CCN(CC)CCNC(=O)Cn1nc(-n2cccc2)c2c(C)cc(C)nc21 | 636 s
63 | CCOc1ccc(-c2nn3c(Cc4ccc(OC)cc4)nnc3s2)cc1 | 1070 s
64 | O=C(NC1CCCC1)c1nc(-c2ccnc(N3CCCCC3)c2)no1 | 763 s
65 | Cc1noc(C)c1-c1ccc(S(=O)(=O)NCc2ccc(F)cc2)cc1 | 942 s
66 | Cc1ccc2nc(-c3cccc(Br)c3)c(C)c(C(=O)O)c2c1 | 694 s
67 | c1ccc(CN2CCC3(CCc4ccccc43)CC2)cc1 | 784 s
68 | Cc1cc(F)cc2c(=O)c3c([nH]c12)CCN(CC(=O)Nc1ccccc1)C3 | 616 s
69 | Cc1noc2nc(CCC(=O)NCc3ccc(Cl)cc3)nc(N3CCOCC3)c12 | 740 s

Row | Structure (SMILES) | RP-LC retention time
70 | Cn1cccc1C(=O)N1C[C@@H]2C[C@H]1C[C@@H]2NC(=O)c1cccs1 | 700 s
71 | CCn1c(=O)c(C(=O)NCCCOC(C)C)nc2cccnc21 | 728 s
72 | COc1ccc(OC)c(N2C(=O)c3cccnc3C2Nc2ccc(C(C)=O)cc2)c1 (configuration not stated) | 698 s
73 | CCc1nc2c(c(=O)n1CC(=O)NCc1ccccc1F)CN(Cc1ccccc1)CC2 | 649 s
74 | Cc1cccc(N2CCn3c2nc2c3c(=O)n(CC(=O)O)c(=O)n2C)c1 | 689 s
75 | CCOc1ccc(S(=O)(=O)N2CCC(C(=O)NCCOC)CC2)cc1C | 783 s
76 | Cc1oc(-c2ccc(Cl)cc2)nc1CN1CCC(C(=O)NCc2ccccn2)CC1 | 584 s
77 | C=CCN1C(=O)COc2ccc(-c3csc(NC(C)=O)n3)cc21 | 762 s
78 | O=C(Nc1nnc(C2CCCCC2)s1)C1CCN(C(=O)c2ccccc2)CC1 | 789 s
79 | CC(C)c1ccc(NC(=O)C2(C)CCCCC(=O)N2)cc1 (configuration not stated) | 786 s
80 | COC(=O)c1c(NCc2ccc(OC)cc2)c2cccc(Cl)c2[nH]c1=O | 788 s
81 | c1ccc2cc(CC3=NCCN3)ccc2c1 | 649 s
82 | Nc1nccn(Cc2ccc(F)cc2F)c1=O | 577 s
83 | CCc1nnc2ccc(-c3noc(-c4ccc(OC)c(OC)c4)n3)cn12 | 829 s
84 | O=C(CN1CCN(Cc2ccc(F)cc2Cl)C1=O)N1CCN(C2CCCCC2)CC1 | 644 s
85 | Cc1cccc(C(=O)NC(C)C(=O)Nc2nc3ccccc3[nH]2)c1 (configuration not stated) | 648 s
86 | Cc1sc(-c2cc(C(F)(F)F)[nH]n2)cc1S(=O)(=O)N1CCN(c2ccccc2F)CC1 | 1170 s
87 | Cc1cccc(NC(=O)C2CCCN(S(=O)(=O)c3c[nH]c(C(=O)N4CCCC4)c3)C2)c1 (configuration not stated) | 589 s
88 | Cc1cc(C)cc(NC(=O)Cc2cn(C)c3ncccc23)c1 | 689 s
89 | Cc1nn2c(CNC(=O)c3ccco3)c(-c3ccccc3)nc2s1 | 728 s
90 | Cc1cnc(CCC2CCCN2C(=O)c2ccc(Cn3cncn3)o2)n1C(C)C (configuration not stated) | 626 s
91 | CS(=O)(=O)N1CCCC1C(=O)Nc1ccccc1 (configuration not stated) | 690 s
92 | COCC(=O)N(C1CCOCC1)C1CCN(S(=O)(=O)c2cccc(F)c2)CC1 | 758 s
